Results from patent US20040086901A1, “Database for analyzing gene function and method of analyzing gene function by dspa” (priority 2000, published 2004).

Columns and labels:
Format in all cases: cell-based, mouse
[1] = system: NIH3T3 cells overexpressing STAT1; test: MTT cell viability, STAT1 overexpressing cells vs parental line; conditions: STAT1 high-expressing cells / parental cell line, 3 to 4 days
Protocol: (§1) With regard to the function-known genes, the genes shown in the left column of Table 2 were used. With regard to the drugs, those shown in Table 1 were dissolved in DMSO to an extent of 100-fold of the maximum concentration for the search of the drugs and used. With regard to the cells, incubated NIH3T3 or ras-NIH3T3 cells were used.
(§2) Full-length cDNA of each function-known genes was incorporated into an expression vector (pRc-CMV, etc.) and transfected into NIH3T3 cells by a common method. Transformed cells were isolated using the resistance to G-418 as an index and the expression of the transfected gene in each cell was investigated by Western blotting method to select a highly expressing line.
(§3) Cell viabilities were measured according to the following procedures.
(§4) 1) From the 2nd to the 11th rows of a 96-well plate were filled with DMEM (50 μl). The 12th row was filled with 100 μl of DMEM.
(§5) 2) The 1st row was filled with 98 μl of DMEM.
(§6) 3) Drugs (2 μl each) were added into the 1st row.
(§7) 4) Continuous double-dilution was conducted from the 1st to the 9th rows. Fifty μl were taken out from the 9th row and discarded. The plate was preserved in a CO2 incubator.
(§8) 5) Cells (each high-expressing cells and the parental cell line) were detached from the medium using a trypsin solution, suspended in 10% CS-DMEM and transferred to a test tube and cell numbers (cell/ml) were counted.
(§9) 6) The cells were diluted to a concentration of 1×10^5 cells/ml, and 50 μl of the cell suspension were added to the 1st to the 11th rows of the plate followed by gently stirring.
(§10) 7) The plate was transferred to the CO2 incubator and incubated for 3 to 4 days.
(§11) 8) MTT (5 mg/ml in PBS) (10 μl) was added to the 1st to the 12th rows of the plate and incubated in the CO2 incubator at 37° C. for 4 hours.
(§12) 9) A reaction stop solution (0.04N HCl in isopropanol) (150 μl) was added followed by mixing well and being allowed to stand at room temperature for about 2 hours.
(§13) 10) Coloration of formazan which was a metabolite of the MTT dye was measured using a microplate reader. The measurement wavelength was 574 nm and the reference wavelength was 655 nm. The 10th and the 11th rows of the plate were 100% controls and the 12th row was a 0% control.
(§14) As an index for the sensitivity of highly gene-expressing cells and the parental cell line to various drugs, each of the IC40 values thereof was specified and ratios of the IC40 values were calculated. […] After that, logarithmic values of ratios of IC40 values were calculated from each gene.

[2] = system: NIH3T3 cells overexpressing C/EBPa; test: MTT cell viability, C/EBPa overexpressing cells vs parental line; conditions: C/EBPa high-expressing cells / parental cell line, 3 to 4 days
Protocol: as §1, §2, §3, §4, §5, §6, §7, §8, §9, §10, §11, §12, §13, §14

[3] = system: NIH3T3 cells overexpressing CP-antisense; test: MTT cell viability, CP-antisense cells vs parental line; conditions: 3 to 4 days
Protocol: as §1, §2, §3, §4, §5, §6, §7, §8, §9, §10, §11, §12, §13
(§15) As an index for the sensitivity of highly gene-expressing cells and the parental cell line to various drugs, each of the IC40 values thereof was specified and ratios of the IC40 values were calculated. FIG. 2 and FIG. 3 are the examples where ratios of IC40 values were calculated from a curve showing the dependency on the concentration of the chemical versus the viability. After that, logarithmic values of ratios of IC40 values were calculated from each gene.

[4] = system: NIH3T3 cells overexpressing T.Tn; test: MTT cell viability, T.Tn overexpressing cells vs parental line; conditions: T.Tn high-expressing cells / parental cell line, 3 to 4 days
Protocol: as §1, §2, §3, §4, §5, §6, §7, §8, §9, §10, §11, §12, §13, §14

[5] = system: NIH3T3 cells overexpressing PKCepsilon-KN; test: MTT cell viability, PKCepsilon-KN overexpressing cells vs parental line; conditions: 3 to 4 days
Protocol: as §1, §2, §3, §4, §5, §6, §7, §8, §9, §10, §11, §12, §13, §14

[6] = system: NIH3T3 cells overexpressing PDGF-R-Del; test: MTT cell viability, PDGF-R-Del overexpressing cells vs parental line; conditions: PDGF-R-Del high-expressing cells / parental cell line, 3 to 4 days
Protocol: as §1, §2, §3, §4, §5, §6, §7, §8, §9, §10, §11, §12, §13, §15

[7] = system: NIH3T3 cells overexpressing RhoA; test: MTT cell viability, RhoA overexpressing cells vs parental line; conditions: RhoA high-expressing cells / parental cell line, 3 to 4 days
Protocol: as §1, §2, §3, §4, §5, §6, §7, §8, §9, §10, §11, §12, §13, §15

[8] = system: NIH3T3 cells overexpressing DAN; test: MTT cell viability, DAN overexpressing cells vs parental line; conditions: DAN high-expressing cells / parental cell line, 3 to 4 days
Protocol: as §1, §2, §3, §4, §5, §6, §7, §8, §9, §10, §11, §12, §13, §15

[9] = system: NIH3T3 cells overexpressing calpastatin; test: MTT cell viability, calpastatin overexpressing cells vs parental line; conditions: calpastatin high-expressing cells / parental cell line, 3 to 4 days
Protocol: as §1, §2, §3, §4, §5, §6, §7, §8, §9, §10, §11, §12, §13, §15

[10] = system: NIH3T3 cells overexpressing cystatin alpha; test: MTT cell viability, cystatin alpha overexpressing cells vs parental line; conditions: cystatin alpha high-expressing cells / parental cell line, 3 to 4 days
Protocol: as §1, §2, §3, §4, §5, §6, §7, §8, §9, §10, §11, §12, §13, §15

[11] = system: NIH3T3 cells overexpressing cAMP-PK-CS; test: MTT cell viability, cAMP-PK-CS overexpressing cells vs parental line; conditions: cAMP-PK-CS high-expressing cells / parental cell line, 3 to 4 days
Protocol: as §1, §2, §3, §4, §5, §6, §7, §8, §9, §10, §11, §12, §13, §14

[12] = system: NIH3T3 cells overexpressing JNK-DN; test: MTT cell viability, JNK-DN overexpressing cells vs parental line; conditions: JNK-DN high-expressing cells / parental cell line, 3 to 4 days
Protocol: as §1, §2, §3, §4, §5, §6, §7, §8, §9, §10, §11, §12, §13, §15

[13] = system: NIH3T3 cells, TPA (PKC downreg); test: MTT cell viability, TPA (PKC downreg) cells vs parental line; conditions: 3 to 4 days
Protocol: as §1, §2, §3, §4, §5, §6, §7, §8, §9, §10, §11, §12, §13, §15

[14] = system: NIH3T3 cells overexpressing TK; test: MTT cell viability, TK overexpressing cells vs parental line; conditions: TK high-expressing cells / parental cell line, 3 to 4 days
Protocol: as §1, §2, §3, §4, §5, §6, §7, §8, §9, §10, §11, §12, §13, §15

[15] = system: NIH3T3 cells overexpressing v-src; test: MTT cell viability, v-src overexpressing cells vs parental line; conditions: v-src high-expressing cells / parental cell line, 3 to 4 days
Protocol: as §1, §2, §3, §4, §5, §6, §7, §8, §9, §10, §11, §12, §13, §15

[16] = system: NIH3T3 cells overexpressing erbB2; test: MTT cell viability, erbB2 overexpressing cells vs parental line; conditions: erbB2 high-expressing cells / parental cell line, 3 to 4 days
Protocol: as §1, §2, §3, §4, §5, §6, §7, §8, §9, §10, §11, §12, §13, §15

[17] = system: NIH3T3 cells overexpressing Bax; test: MTT cell viability, Bax overexpressing cells vs parental line; conditions: 3 to 4 days
Protocol: as §1, §2, §3, §4, §5, §6, §7, §8, §9, §10, §11, §12, §13, §14

[18] = system: NIH3T3 cells overexpressing p33/ING1; test: MTT cell viability, p33/ING1 overexpressing cells vs parental line; conditions: p33/ING1 high-expressing cells / parental cell line, 3 to 4 days
Protocol: as §1, §2, §3, §4, §5, §6, §7, §8, §9, §10, §11, §12, §13, §15

[19] = PKCepsilon-KN (first of two lines) high-expressing cells / parental cell line
[20] = PKCepsilon-KN (second of two lines) high-expressing cells / parental cell line
[21] = Bax (first of two Bax lines) high-expressing cells / parental cell line
[22] = Bax (second of two Bax lines) high-expressing cells / parental cell line

Row | Compound | logarithmic value of ratio of IC40 values [1] | logarithmic value of ratio of IC40 values [2] | logarithmic value of ratio of IC40 values [3] | logarithmic value of ratio of IC40 values [4] | logarithmic value of ratio of IC40 values [5, 19] | logarithmic value of ratio of IC40 values [5, 20] | logarithmic value of ratio of IC40 values [6] | logarithmic value of ratio of IC40 values [7] | logarithmic value of ratio of IC40 values [8] | logarithmic value of ratio of IC40 values [9] | logarithmic value of ratio of IC40 values [10] | logarithmic value of ratio of IC40 values [11] | logarithmic value of ratio of IC40 values [12] | logarithmic value of ratio of IC40 values [13] | logarithmic value of ratio of IC40 values [14] | logarithmic value of ratio of IC40 values [15] | logarithmic value of ratio of IC40 values [16] | logarithmic value of ratio of IC40 values [17, 21] | logarithmic value of ratio of IC40 values [17, 22] | logarithmic value of ratio of IC40 values [18]
1 | Nc1nc2nc[nH]c2c(=S)[nH]1 [6-TG, 6-thioguanine] | 0.20 | 0.00 | 0.14 | 0.00 | 0.00 | 0.00 | 0.51 | 0.69 | 0.64 | −0.25 | 0.60 | 0.14 | 0.00 | 0.00 | −0.17 | 0.00 | −0.12 | 0.36 | −0.05 | 0.46
2 | CN(C)CCCn1cc(C2=C(c3c[nH]c4ccccc34)C(=O)NC2=O)c2ccccc21 [GF109203X] | 0.41 | 0.00 | 0.00 | −0.10 | −0.17 | 0.32 | 0.91 | 0.24 | 0.65 |  | 0.60 | 0.27 | 0.58 | 0.09 | 0.00 | −0.29 | −0.40 | 0.22 | 0.27 | −0.28
3 | sodium vanadate | 0.00 | −0.02 | 0.04 | 0.46 | 0.09 | 0.18 | 0.00 | 0.28 | 0.30 | 0.00 | 0.08 | 0.00 | −0.17 | −0.03 | 0.16 | 0.00 | −0.40 | 0.00 | 0.32 | −0.30
